Laboratory results reported in ChEMBL document CHEMBL3870329, “Synthesis of peptide nucleic acids (PNA) with a crosslinking agent to RNA and effective inhibition of dicer” (Bioorg Med Chem Lett, 2016).
One block for each molecule: values may come before it. Activity calls are given as the source filed them. The calls are words filed in the database; no cut-off is given here.

Tests used:
Nucleic Acid [1] = assay: Binding affinity to 5'-end FAM-tagged GACCAAACCCAAUCUGGUU RNA (unknown origin) assessed as induction of crosslinking by measuring heteroduplex formation at 4 uM measured after 24 hrs by bromophenol blue staining-based denaturing PAGE analysis relative to control; type: nucleic-acid assay
Nucleic Acid [2] = assay: Binding affinity to 5'-end FAM-tagged GACCAAGCCCAAUCUGGUU RNA (unknown origin) assessed as induction of crosslinking by measuring heteroduplex formation at 4 uM measured after 24 hrs by bromophenol blue staining-based denaturing PAGE analysis relative to control; type: nucleic-acid assay
Nucleic Acid [3] = assay: Binding affinity to 5'-end FAM-tagged GACCAACCCCAAUCUGGUU RNA (unknown origin) assessed as induction of crosslinking by measuring heteroduplex formation at 4 uM measured after 24 hrs by bromophenol blue staining-based denaturing PAGE analysis relative to control; type: nucleic-acid assay
Nucleic Acid [4] = assay: Binding affinity to 5'-end FAM-tagged GACCAAUCCCAAUCUGGUU RNA (unknown origin) assessed as induction of crosslinking by measuring heteroduplex formation at 4 uM measured after 24 hrs by bromophenol blue staining-based denaturing PAGE analysis relative to control; type: nucleic-acid assay
Nucleic Acid [5] = assay: Binding affinity to 5'-end FAM-tagged GACCAAACCCAATCTGGTT DNA (unknown origin) assessed as induction of crosslinking by measuring heteroduplex formation at 4 uM measured after 24 hrs by bromophenol blue staining-based denaturing PAGE analysis relative to control; type: nucleic-acid assay
Nucleic Acid [6] = assay: Binding affinity to 5'-end FAM-tagged GACCAAGCCCAATCTGGTT DNA (unknown origin) assessed as induction of crosslinking by measuring heteroduplex formation at 4 uM measured after 24 hrs by bromophenol blue staining-based denaturing PAGE analysis relative to control; type: nucleic-acid assay
Nucleic Acid [7] = assay: Binding affinity to 5'-end FAM-tagged GACCAACCCCAATCTGGTT DNA (unknown origin) assessed as induction of crosslinking by measuring heteroduplex formation at 4 uM measured after 24 hrs by bromophenol blue staining-based denaturing PAGE analysis relative to control; type: nucleic-acid assay
Nucleic Acid [8] = assay: Binding affinity to 5'-end FAM-tagged GACCAATCCCAATCTGGTT DNA (unknown origin) assessed as induction of crosslinking by measuring heteroduplex formation at 4 uM measured after 24 hrs by bromophenol blue staining-based denaturing PAGE analysis relative to control; type: nucleic-acid assay
unidentified [9] = assay: Binding affinity to 5'-end FAM-tagged GACCAATCCCAATCTGGTT DNA (unknown origin) assessed as melting temperature at 1.5 uM measured after 5 mins by UV spectrophotometry (reference value: 67.4 degC)
unidentified [10] = assay: Binding affinity to 5'-end FAM-tagged GACCAAUCCCAAUCUGGUU RNA (unknown origin) assessed as melting temperature at 1.5 uM measured after 5 mins by UV spectrophotometry (reference value: 77.1 degC)
Nucleic Acid [11] = assay: Binding affinity to synthetic 5'-FAM-labelled pre-miR-122 RNA site2 (unknown origin) assessed as heteroduplex formation at 4 uM measured after 2 hrs by denaturing PAGE analysis relative to control; type: nucleic-acid assay
Nucleic Acid [12] = assay: Binding affinity to synthetic 5'-fluorescein-labelled pre-miR-122 RNA site2 (unknown origin) assessed as heteroduplex formation at 4 uM measured after 48 hrs by non-denaturing PAGE analysis relative to control; type: nucleic-acid assay
Nucleic Acid [13] = assay: Binding affinity to synthetic 5'-FAM-labelled pre-miR-122 RNA site2 (unknown origin) assessed as human dicer-mediated digestion of pre-miR-122 RNA preincubated with RNA for 2 days followed by dicer addition measured after 2 hrs by denaturing PAGE analysis; type: nucleic-acid assay
Nucleic Acid [14] = assay: Binding affinity to synthetic 5'-FAM-labelled pre-miR-122 RNA site2 (unknown origin) assessed as inhibition of human dicer-mediated digestion of pre-miR-122 RNA preincubated with RNA for 2 days followed by dicer addition measured after 2 hrs by denaturing PAGE analysis relative to control; type: nucleic-acid assay; conditions: concentration not given here
Nucleic Acid [15] = assay: Binding affinity to 5'-end FAM-tagged GUGGUAACAGUGUGAGGU RNA (unknown origin) assessed as induction of crosslinking by measuring heteroduplex formation at 4 uM measured after 24 hrs by bromophenol blue staining-based denaturing PAGE analysis; type: nucleic-acid assay
Nucleic Acid [16] = assay: Binding affinity to synthetic 5'-FAM-labelled pre-miR-122 RNA site3 (unknown origin) assessed as heteroduplex formation at 4 uM measured after 2 hrs by denaturing PAGE analysis relative to control; type: nucleic-acid assay
Nucleic Acid [17] = assay: Binding affinity to synthetic 5'-fluorescein-labelled pre-miR-122 RNA site3 (unknown origin) assessed as heteroduplex formation at 4 uM measured after 48 hrs by non-denaturing PAGE analysis relative to control; type: nucleic-acid assay
Nucleic Acid [18] = assay: Binding affinity to synthetic 5'-FAM-labelled pre-miR-122 RNA site3 (unknown origin) assessed as human dicer-mediated digestion of pre-miR-122 RNA preincubated with RNA for 2 days followed by dicer addition measured after 2 hrs by denaturing PAGE analysis; type: nucleic-acid assay
Nucleic Acid [19] = assay: Binding affinity to synthetic 5'-FAM-labelled pre-miR-122 RNA site3 (unknown origin) assessed as inhibition of human dicer-mediated digestion of pre-miR-122 RNA by measuring heteroduplex formation preincubated with RNA for 2 days followed by dicer addition measured after 2 hrs by denaturing PAGE analysis relative to control; type: nucleic-acid assay; conditions: concentration not given here
Nucleic Acid [20] = assay: Binding affinity to 5'-end FAM-tagged GCAAACUAUCAAAUCUGUGU RNA (unknown origin) assessed as induction of crosslinking by measuring heteroduplex formation at 4 uM measured after 24 hrs by bromophenol blue staining-based denaturing PAGE analysis; type: nucleic-acid assay
[21] = Binding affinity to 5'-end FAM-tagged GACACAATCCCAATCTGGTT DNA (unknown origin) assessed as change in melting temperature at 1.5 uM measured after 5 mins by UV spectrophotometry
[22] = Binding affinity to 5'-end FAM-tagged GACGCAATCCCAATCTGGTT DNA (unknown origin) assessed as change in melting temperature at 1.5 uM measured after 5 mins by UV spectrophotometry
[23] = Binding affinity to 5'-end FAM-tagged GACCCAATCCCAATCTGGTT DNA (unknown origin) assessed as change in melting temperature at 1.5 uM measured after 5 mins by UV spectrophotometry
[24] = Binding affinity to 5'-end FAM-tagged GACTCAATCCCAATCTGGTT DNA (unknown origin) assessed as change in melting temperature at 1.5 uM measured after 5 mins by UV spectrophotometry
[25] = Binding affinity to 5'-end FAM-tagged GACACAAUCCCAAUCUGGUU RNA (unknown origin) assessed as change in melting temperature at 1.5 uM measured after 5 mins by UV spectrophotometry
[26] = Binding affinity to 5'-end FAM-tagged GACGCAAUCCCAAUCUGGUU RNA (unknown origin) assessed as change in melting temperature at 1.5 uM measured after 5 mins by UV spectrophotometry
[27] = Binding affinity to 5'-end FAM-tagged GACCCAAUCCCAAUCUGGUU RNA (unknown origin) assessed as change in melting temperature at 1.5 uM measured after 5 mins by UV spectrophotometry
[28] = Binding affinity to 5'-end FAM-tagged GACUCAAUCCCAAUCUGGUU RNA (unknown origin) assessed as change in melting temperature at 1.5 uM measured after 5 mins by UV spectrophotometry
Nucleic Acid [29] = assay: Binding affinity to synthetic 5'-FAM-labelled pre-miR-122 RNA site1 (unknown origin) assessed as heteroduplex formation at 4 uM measured after 2 hrs by denaturing PAGE analysis relative to control; type: nucleic-acid assay
Nucleic Acid [30] = assay: Binding affinity to synthetic 5'-fluorescein-labelled pre-miR-122 RNA site1 (unknown origin) assessed as heteroduplex formation at 4 uM measured after 48 hrs by non-denaturing PAGE analysis relative to control; type: nucleic-acid assay
Nucleic Acid [31] = assay: Binding affinity to synthetic 5'-FAM-labelled pre-miR-122 RNA site1 (unknown origin) assessed as human dicer-mediated digestion of pre-miR-122 RNA preincubated with RNA for 2 days followed by dicer addition measured after 2 hrs by denaturing PAGE analysis; type: nucleic-acid assay
Nucleic Acid [32] = assay: Binding affinity to synthetic 5'-FAM-labelled pre-miR-122 RNA site1 (unknown origin) assessed as inhibition of human dicer-mediated digestion of pre-miR-122 RNA preincubated with RNA for 2 days followed by dicer addition measured after 2 hrs by denaturing PAGE analysis relative to control; type: nucleic-acid assay; conditions: concentration not given here
Nucleic Acid [33] = assay: Binding affinity to 5'-end FAM-tagged CACUAUUACCGCAAACUAUC RNA (unknown origin) assessed as induction of crosslinking by measuring heteroduplex formation at 4 uM measured after 24 hrs by bromophenol blue staining-based denaturing PAGE analysis; type: nucleic-acid assay

Structure (SMILES): C=Cc1nc(N)nc2c1ncn2CC(=O)N(CCNC(=O)CN(CCNC(=O)CN(CCNC(=O)CN(CCNC(C)=O)C(=O)Cn1cnc2c(=O)[nH]c(N)nc21)C(=O)Cn1cc(C)c(=O)[nH]c1=O)C(=O)Cn1cc(C)c(=O)[nH]c1=O)CC(=O)NCCN(CC(=O)NCCN(CC(=O)NCCN(CC(=O)NCCN(CC(=O)NCCN(CC(=O)NCCN(CC(=O)NCCN(CC(=O)N[C@@H](CCCNC(=N)N)C(=O)N[C@@H](CCCNC(=N)N)C(=O)NCC(N)=O)C(=O)Cn1cnc2c(=O)[nH]c(N)nc21)C(=O)Cn1cnc2c(N)ncnc21)C(=O)Cn1cc(C)c(=O)[nH]c1=O)C(=O)Cn1cc(C)c(=O)[nH]c1=O)C(=O)Cn1cnc2c(=O)[nH]c(N)nc21)C(=O)Cn1cnc2c(=O)[nH]c(N)nc21)C(=O)Cn1cnc2c(=O)[nH]c(N)nc21
Activity (Nucleic Acid [1]): 0%
Activity (Nucleic Acid [2]): 4%
Activity (Nucleic Acid [3]): 0%
Activity (Nucleic Acid [4]): 2%
Activity (Nucleic Acid [5]): 0%
Activity (Nucleic Acid [6]): 7%
Activity (Nucleic Acid [7]): 1%
Activity (Nucleic Acid [8]): 3%
Tm (unidentified [9]): 77.3 °C
Tm (unidentified [10]): 83 °C

Structure (SMILES): Cc1cn(CC(=O)N(CCNC(=O)CN(CCNC(=O)CN(CCNC(=O)CN(CCNC(=O)CN(CCNC(=O)CN(CCNC(=O)CN(CCNC(=O)CN(CCNC(=O)CN(CCNC(=O)CN(CCNC(=O)CN(CCN)C(=O)Cn2cnc3c(N)ncnc32)C(=O)Cn2cc(C)c(=O)[nH]c2=O)C(=O)Cn2cc(C)c(=O)[nH]c2=O)C(=O)Cn2cnc3c(=O)[nH]c(N)nc32)C(=O)Cn2cc(C)c(=O)[nH]c2=O)C(=O)Cn2ccc(N)nc2=O)C(=O)Cn2cnc3c(N)ncnc32)C(=O)Cn2ccc(N)nc2=O)C(=O)Cn2cnc3c(N)ncnc32)C(=O)Cn2ccc(N)nc2=O)CC(=O)NCCN(CC(=O)NCCN(CC(=O)N[C@@H](CCCNC(=N)N)C(=O)O)C(=O)Cn2ccc(N)nc2=O)C(=O)Cn2ccc(N)nc2=O)c(=O)[nH]c1=O
Activity (Nucleic Acid [11]): 0%
Activity (Nucleic Acid [12]): 28%
Activity (Nucleic Acid [13]): 78%
inhibition (Nucleic Acid [14]): 22%
Activity (Nucleic Acid [15]): Active

Structure (SMILES): CSCCc1nc(N)nc2c1ncn2CC(=O)N(CCNC(C)=O)CC(=O)NCCN(CC(=O)NCCN(CC(=O)NCCN(CC(=O)NCCN(CC(=O)NCCN(CC(=O)NCCN(CC(=O)NCCN(CC(=O)NCCN(CC(=O)NCCN(CC(=O)NCCN(CC(=O)NCCN(CC(=O)N[C@@H](CCCNC(=N)N)C(=O)N[C@@H](CCCNC(=N)N)C(=O)NCC(N)=O)C(=O)Cn1cnc2c(=O)[nH]c(N)nc21)C(=O)Cn1cnc2c(N)ncnc21)C(=O)Cn1cc(C)c(=O)[nH]c1=O)C(=O)Cn1cc(C)c(=O)[nH]c1=O)C(=O)Cn1cnc2c(=O)[nH]c(N)nc21)C(=O)Cn1cnc2c(=O)[nH]c(N)nc21)C(=O)Cn1cnc2c(=O)[nH]c(N)nc21)C(=O)Cn1cnc2c(N)ncnc21)C(=O)Cn1cc(C)c(=O)[nH]c1=O)C(=O)Cn1cc(C)c(=O)[nH]c1=O)C(=O)Cn1cnc2c(=O)[nH]c(N)nc21
ΔTm [21]: -2.7 °C
ΔTm [22]: -1.9 °C
ΔTm [23]: -1.7 °C
ΔTm [24]: -1.1 °C
ΔTm [25]: -4.2 °C
ΔTm [26]: -2.1 °C
ΔTm [27]: -2.5 °C
ΔTm [28]: -2.3 °C

Continued, values first:

Activity (Nucleic Acid [16]): 0%
Activity (Nucleic Acid [17]): 75%
Activity (Nucleic Acid [18]): 53%
inhibition (Nucleic Acid [19]): 47%
Activity (Nucleic Acid [20]): Active
Structure (SMILES): Cc1cn(CC(=O)N(CCNC(=O)CN(CCNC(=O)CN(CCNC(=O)CN(CCNC(=O)CN(CCNC(=O)CN(CCN)C(=O)Cn2cnc3c(N)ncnc32)C(=O)Cn2cc(C)c(=O)[nH]c2=O)C(=O)Cn2cnc3c(N)ncnc32)C(=O)Cn2cnc3c(=O)[nH]c(N)nc32)C(=O)Cn2cc(C)c(=O)[nH]c2=O)CC(=O)NCCN(CC(=O)NCCN(CC(=O)NCCN(CC(=O)NCCN(CC(=O)NCCN(CC(=O)NCCN(CC(=O)NCCN(CC(=O)N[C@@H](CCCNC(=N)N)C(=O)O)C(=O)Cn2ccc(N)nc2=O)C(=O)Cn2cnc3c(N)ncnc32)C(=O)Cn2ccc(N)nc2=O)C(=O)Cn2cnc3c(N)ncnc32)C(=O)Cn2cnc3c(=O)[nH]c(N)nc32)C(=O)Cn2cnc3c(N)ncnc32)C(=O)Cn2cc(C)c(=O)[nH]c2=O)c(=O)[nH]c1=O

Activity (Nucleic Acid [29]): 0%
Activity (Nucleic Acid [30]): 16%
Activity (Nucleic Acid [31]): 91%
inhibition (Nucleic Acid [32]): 9%
Activity (Nucleic Acid [33]): Active
Structure (SMILES): Cc1cn(CC(=O)N(CCNC(=O)CN(CCNC(=O)CN(CCNC(=O)CN(CCNC(=O)CN(CCNC(=O)CN(CCNC(=O)CN(CCNC(=O)CN(CCN)C(=O)Cn2cnc3c(N)ncnc32)C(=O)Cn2cc(C)c(=O)[nH]c2=O)C(=O)Cn2cnc3c(=O)[nH]c(N)nc32)C(=O)Cn2cnc3c(=O)[nH]c(N)nc32)C(=O)Cn2ccc(N)nc2=O)C(=O)Cn2cnc3c(=O)[nH]c(N)nc32)C(=O)Cn2cc(C)c(=O)[nH]c2=O)CC(=O)NCCN(CC(=O)NCCN(CC(=O)NCCN(CC(=O)NCCN(CC(=O)NCCN(CC(=O)N[C@@H](CCCNC(=N)N)C(=O)O)C(=O)Cn2cnc3c(N)ncnc32)C(=O)Cn2cc(C)c(=O)[nH]c2=O)C(=O)Cn2cnc3c(N)ncnc32)C(=O)Cn2cnc3c(=O)[nH]c(N)nc32)C(=O)Cn2cc(C)c(=O)[nH]c2=O)c(=O)[nH]c1=O
